Source: patent publication US12281095B2, “Pesticidally active diazine-amide compounds” (SYNGENTA CROP PROTECTION AG, priority 2019, dated 2025)

Key:
Format in all cases: in vivo
[1] = test system: Plutella xylostella (Diamondback Moth); experiment: Example B13: Plutella xylostella (Diamondback Moth), artificial diet, 96-well; conditions: 216 h, application rate of 500 ppm, eggs/L1 larvae, 9 days after infestation
Protocol: Example B13: Plutella xylostella (Diamondback Moth)
96-well microtiter plates containing artificial diet were treated with aqueous test solutions, prepared from 10′000 ppm DMSO stock solutions, by a liquid handling robot. After drying, eggs (˜30 per well) were infested onto a netted lid which was suspended above the diet. The eggs hatch and L1 larvae move down to the diet. The samples were assessed for mortality 9 days after infestation.

[2] = test system: Chilo suppressalis (Striped Rice Stemborer); experiment: Example B4: Chilo suppressalis (Striped Rice Stemborer), artificial diet; conditions: 144 h, application rate of 200 ppm, L2 larvae, 6 days after infestation, read-out: control in at least one of the three categories (mortality, anti-feedant or growth inhibition)
In short: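 Artificial diet was treated with aqueous dilutions made from 10'000 ppm DMSO stocks, dried, then infested with L2 larvae at 6–8 per well. Mortality, antifeedant effect and growth inhibition were assessed against untreated samples 6 days after infestation.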

[3] = test system: Tetranychus urticae (Two-Spotted Spider Mite); experiment: Example B11: Tetranychus urticae (Two-Spotted Spider Mite), sprayed bean leaf discs; conditions: foliar, 192 h
Protocol: Example B11: Tetranychus urticae (Two-Spotted Spider Mite)
Bean leaf discs on agar in 24-well microtiter plates were sprayed with aqueous test solutions prepared from 10′000 ppm DMSO stock solutions. After drying the leaf discs were infested with a mite population of mixed ages. The samples were assessed for mortality on mixed population (mobile stages) 8 days after infestation.

[4] = test system: Plutella xylostella (Diamond Back Moth); experiment: Example B5: Plutella xylostella (Diamond Back Moth), artificial diet, 24-well; conditions: 192 h, application rate of 200 ppm, eggs, 8 days after infestation, read-out: control in at least one of the two categories (mortality or growth inhibition)
Protocol: Example B5: Plutella xylostella (Diamond Back Moth)
24-well microtiter plates with artificial diet were treated with aqueous test solutions prepared from 10′000 ppm DMSO stock solutions by pipetting. After drying, Plutella eggs were pipetted through a plastic stencil onto a gel blotting paper and the plate was closed with it. The samples were assessed for mortality and growth inhibition in comparison to untreated samples 8 days after infestation.

[5] = test system: Diabrotica balteata (Corn Root Worm); experiment: Example B1: Diabrotica balteata (Corn Root Worm), sprayed maize sprouts; conditions: 96 h, application rate of 200 ppm, L2 larvae, 4 days after infestation, read-out: control in at least one of the two categories (mortality or growth inhibition)
Protocol: Example B1: Diabrotica balteata (Corn Root Worm)
Maize sprouts placed onto an agar layer in 24-well microtiter plates were treated with aqueous test solutions prepared from 10′000 ppm DMSO stock solutions by spraying. After drying, the plates were infested with L2 larvae (6 to 10 per well). The samples were assessed for mortality and growth inhibition in comparison to untreated samples 4 days after infestation.

[6] = test system: Spodoptera littoralis (Egyptian Cotton Leaf Worm); experiment: Example B9: Spodoptera littoralis (Egyptian Cotton Leaf Worm), sprayed cotton leaf discs; conditions: foliar, 72 h, application rate of 200 ppm, L1 larvae, 3 days after infestation, read-out: control in at least one of the three categories (mortality, anti-feedant or growth inhibition)
[7] = test system: Myzus persicae (Green Peach Aphid); experiment: Example B6: Myzus persicae (Green Peach Aphid): Feeding/Contact Activity; conditions: 144 h, application rate of 200 ppm, aphid population of mixed ages, 6 days after infestation
Protocol: Example B6: Myzus persicae (Green Peach Aphid): Feeding/Contact Activity
Sunflower leaf discs were placed onto agar in a 24-well microtiter plate and sprayed with aqueous test solutions prepared from 10′000 ppm DMSO stock solutions. After drying, the leaf discs were infested with an aphid population of mixed ages. The samples were assessed for mortality 6 days after infestation.

[8] = test system: Euschistus heros (Neotropical Brown Stink Bug); experiment: Example B2: Euschistus heros (Neotropical Brown Stink Bug), sprayed soybean leaves; conditions: 120 h, application rate of 200 ppm, N2 nymphs, 5 days after infestation, read-out: control in at least one of the two categories (mortality or growth inhibition)
Protocol: Example B2: Euschistus heros (Neotropical Brown Stink Bug)
Soybean leaves on agar in 24-well microtiter plates were sprayed with aqueous test solutions prepared from 10′000 ppm DMSO stock solutions. After drying the leaves were infested with N2 nymphs. The samples were assessed for mortality and growth inhibition in comparison to untreated samples 5 days after infestation.

[9] = test system: Myzus persicae (Green Peach Aphid); experiment: Example B8: Myzus persicae (Green Peach Aphid): Intrinsic Activity; conditions: 120 h, test rate of 12 ppm, sucrose solution, 5 days after infestation
Text: Example B8: Myzus persicae (Green Peach Aphid): Intrinsic Activity
Test compounds prepared from 10′000 ppm DMSO stock solutions were applied by pipette into 24-well microtiter plates and mixed with sucrose solution. The plates were closed with a stretched Parafilm. A plastic stencil with 24 holes was placed onto the plate and infested pea seedlings were placed directly on the Parafilm. The infested plate was closed with a gel blotting paper and another plastic stencil and then turned upside down. The samples were assessed for mortality 5 days after infestation.

[10] = test system: Frankliniella occidentalis (Western Flower Thrips); experiment: Example B3: Frankliniella occidentalis (Western Flower Thrips): Feeding/Contact Activity; conditions: 168 h, application rate of 200 ppm, population of mixed ages, 7 days after infestation
Protocol: Example B3: Frankliniella occidentalis (Western Flower Thrips): Feeding/Contact Activity
Sunflower leaf discs were placed on agar in 24-well microtiter plates and sprayed with aqueous test solutions prepared from […] stock solutions. After drying the leaf discs were infested with a Frankliniella population of mixed ages. The samples were assessed for mortality 7 days after infestation.

CC(NC(=O)c1cc(C(F)(F)F)nc(C2(C#N)CC2)c1)c1nccnc1-c1ccc(OCC(F)F)cn1 (centres unmarked) [P22, 2-(1-cyanocyclopropyl)-N-[1-[3-[5-(2,2-difluoroethoxy)-2-pyridyl]pyrazin-2-yl]ethyl]-6-(trifluoromethyl)pyridine-4-carboxamide]
≥ 80%: mortality at 500 ppm [1] | percent control (mortality, anti-feedant effect or growth inhibition) at 200 ppm [2] | mortality at 200 ppm [3] | percent control (mortality or growth inhibition) at 200 ppm [4] | percent control (mortality or growth inhibition) at 200 ppm [5] | percent control (mortality, anti-feedant effect or growth inhibition) at 200 ppm [6]

CC(NC(=O)c1cc(C(F)(F)F)cc(C2(C#N)CC2)c1)c1nccnc1-c1ncc(OCC(F)F)cn1 (centres unmarked) [P49, 3-(1-cyanocyclopropyl)-N-[1-[3-[5-(2,2-difluoroethoxy)pyrimidin-2-yl]pyrazin-2-yl]ethyl]-5-(trifluoromethyl)benzamide]
≥ 80%: percent control (mortality, anti-feedant effect or growth inhibition) at 200 ppm [2] | percent control (mortality or growth inhibition) at 200 ppm [4] | percent control (mortality or growth inhibition) at 200 ppm [5] | percent control (mortality, anti-feedant effect or growth inhibition) at 200 ppm [6] | mortality at 200 ppm [7] | percent control (mortality or growth inhibition) at 200 ppm [8] | mortality at 12 ppm [9]

CC(NC(=O)c1cc(C(F)(F)F)cc(C(C)(C)C#N)c1)c1nccnc1-c1ncc(OCC(F)F)cn1 (centres unmarked) [P48, 3-(1-cyano-1-methyl-ethyl)-N-[1-[3-[5-(2,2-difluoroeth-oxy)pyrimidin-2-yl]pyrazin-2-yl]ethyl]-5-(trifluoro-methyl)benzamide]
≥ 80%: percent control (mortality, anti-feedant effect or growth inhibition) at 200 ppm [2] | percent control (mortality or growth inhibition) at 200 ppm [4] | percent control (mortality or growth inhibition) at 200 ppm [5] | percent control (mortality, anti-feedant effect or growth inhibition) at 200 ppm [6] | mortality at 200 ppm [10] | percent control (mortality or growth inhibition) at 200 ppm [8] | mortality at 12 ppm [9]

CC(NC(=O)c1cc(OC(F)F)cc(C2(C#N)CC2)c1)c1nccnc1-c1ccc(C#N)cn1 (centres unmarked) [P44, 3-(1-cyanocyclopropyl)-N-[1-[3-(5-cyano-2-pyridyl)pyrazin-2-yl]ethyl]-5-(difluorometh-oxy)benzamide]
≥ 80%: percent control (mortality, anti-feedant effect or growth inhibition) at 200 ppm [2] | percent control (mortality or growth inhibition) at 200 ppm [4] | percent control (mortality or growth inhibition) at 200 ppm [5] | percent control (mortality, anti-feedant effect or growth inhibition) at 200 ppm [6] | mortality at 200 ppm [10] | mortality at 12 ppm [9]
